Test results taken from article PMC6312923 (Life Science Alliance, 2018).

Assays:
Assay type in all cases: cell-based, human
[1] = test system: Cdt1 and p21 poly-ubiquitination; experiment: Poly-ubiquitination of Cdt1 and p21 in U2OS cells; conditions: U2OS stable cells, MG132 3 h
Procedure: (§1) To consider this possibility, asynchronously growing control HEK293 cells and cells expressing Cdt2^WT or Cdt2^PIP-3A were treated with proteasome inhibitor MG132 and the levels of poly-ubiquitinated Cdt1 were examined. […] Cdt2^PIP-3A-expressing cells however had reduced level of both poly-ubiquitinated Cdt1 and p21 on chromatin.
(§2) Figure S7. Cdt2 PIP box is important for CRL4^Cdt2 activity in U2OS cells. (A) U2OS stable cells expressing Cdt2^WT or Cdt2^PIP-3A. U2OS cells were transfected with expression vectors for Cdt2^WT-FLAG or Cdt2^PIP-3A-FLAG, and isolated stable clones were verified by immunofluorescent analysis and Western blot analysis. Frequency of expressing cells for each construct was shown (%). (B) Poly-ubiquitination assay with U2OS stable cells. U2OS cells and Cdt2^WT-3FLAG or Cdt2^PIP-3A-3FLAG expressing stable U2OS cells were treated with MG132 for 3 h or not (−), and whole-cell extracts were prepared for Western blotting. (C) Cells were transfected with siCdt2 or control siLuc for 72 h, irradiated with UV (+, 5 J/m^2) or not (−), and collected 1h later for Western blotting. Relative levels of Cdt1 were shown, UV (−) level set as 1.0 (average of two independent experiments).

U2OS cells = experiment: Nuclear enlargement / re-replication in U2OS cells; conditions: siCdt2 72 h
Procedure: Next, we examined Cdt1 degradation after the onset of the S phase in the Cdt2^PIP-3A-expressing cells. Cyclin A is present in the S and G2 phase, when Cdt1 should be degraded. Thus, Cdt1 should be present in cells that are negative for cyclin A, and absent in cells that are positive for cyclin A ([Nishitani et al, 2006]; [Xouri et al., 2007a], [2007b]). Cdt1 degradation after the onset of the S phase is carried out by two ubiquitin ligases, CRL1^Skp2 and CRL4^Cdt2. We depleted the substrate recognition subunits, Cdt2 and/or Skp2, by siRNA, and the percentage of Cdt1 positive cells among cyclin A–positive cells was assessed by immunofluorescence. In control siRNA-transfected U2OS cells, ∼2% of cyclin A–positive cells stained positive for Cdt1. […]
Figure 8. […] The frequency of Cdt1-positive (+) cells among cyclin A–positive (+) cells was calculated (n = 3). […] (D) Cells treated with siCdt2 or control siLuc were measured for their nuclear size (n = 200 for each), and are shown in a scatter plot. […]
Double-stranded RNAs were transfected at 100 nM using Oligofectamine (Invitrogen) or HiPerFect (QIAGEN). […] For Cdt1 silencing in Fig 1A and B, unsychronized HeLa cells were transfected twice with 200 nM of Cdt1 siRNA or control luciferase siRNA using Lipofectamine 2000 with a time interval of 24 h and were analysed 48 h after the second transfection. […]

[2] = test system: UV-C–damaged sites in MCF7 cells; experiment: FRAP of GFP-tagged proteins at sites of local UV-C damage in MCF7 cells
Procedure: (C) MCF7 cells were transfected with the indicated GFP-tagged plasmids and 24 h later they were locally UV-C irradiated (50 J/m^2). 20 min following irradiation, FRAP experiments were conducted at the site of damage and in untreated cells (Fig S1). FRAP data were analysed with easyFRAP. Mean normalized fluorescence intensities at the site of damage as a function of time following photobleaching are shown. (D) MCF7 cells were synchronized in the S phase by treatment with 2-mM thymidine for 24 h. Upon release, cells were transfected with siCdt1 or control siLuc in parallel with a plasmid expressing GFP-tagged Cdt2. Cells were then synchronised in the M phase by treatment with 50 ng/ml nocodazole for 12 h, released into G1 for 5 h, and locally UV-C irradiated (50 J/m^2). 20 min after irradiation, the cells were analysed by FRAP. Mean normalized fluorescence recovery curves at the sites of damage are shown.
To perform micropore UV irradiation, cells were cultured on cover slips, washed twice with PBS, and subsequently covered with an isopore polycarbonate membrane filter (Millipore) with a pore size of either 3 or 5 μm in diameter, and irradiated. UV irradiation was achieved using a UV lamp (SUV-16, As One, Japan) with a dose rate of 0.4 J/m^2·s, which was monitored with a UV radiometer (UVX Radiometer, UVP) at 254 nm, or with a UV box equipped with a UV-C lamp monitored with a VLX-3W radiometer (Vilber Lourmat) at 254 nm (CX-254 sensor). The filter was removed and cells were either fixed or cultured for the indicated time before fixation, and processed for immunofluorescence. For FRAP analysis, cells were cultured for 20 min to allow recruitment to sites of damage before photobleaching.
Cells (HeLa or MCF7) were plated on 35-mm glass-bottom dishes in phenol-red–free medium (Invitrogen). […] A Leica TCS SP5 microscope equipped with a 63x magnification 1.4 NA oil-immersion lens and FRAP booster were used. During FRAP, cells were maintained at 37°C and 5% CO2. A defined circular region of interest with 2 μm diameter (ROI1) was placed in the nucleus and at the recruitment sites. GFP was excited using a 488-nm argon laser line. 50 pre-bleach images were acquired with 3% of the 488-nm line at 60% argon laser intensity, followed by a single bleach pulse on ROI1 using 476-nm and 488-nm laser lines combined at maximum power. In this manner, at least 60% of the fluorescence in ROI1 was bleached successfully. Next, 400 post-bleach images with a 0.052 s interval were recorded. Mean intensities of ROI1, the whole nucleus (ROI2) and an area outside of the nucleus (ROI3) were quantified and exported as .csv format files.

PCNA mono-ubiquitination = experiment: Mono-ubiquitination of PCNA; conditions: in comparison with Cdt2^wt-expressing cells, Fig S7B
Text: as §2

p21 poly-ubiquitination = experiment: Poly-ubiquitination of p21 in HEK293 cells; conditions: HEK293, MG132 3 h, chromatin fraction
Procedure: Figure 6. The Cdt2 PIP box is important for its recruitment to DNA damage sites and replication foci and for poly-ubiquitination activity. (A) HEK293 and stable Cdt2^WT or Cdt2^PIP-3A cells were locally UV irradiated, and stained for XPA and FLAG (Cdt2). XPA-positive spots were examined for FLAG signal, and its frequency was counted (%). More than 50 spots were examined. bar:10 μm. […] Bar: 10 μm. […] (D) Whole-cell extracts were prepared from HEK293 and stably transfected cells of Cdt2^WT or Cdt2^PIP-3A cells, separated into soluble (Sup) and chromatin-containing insoluble (Ppt) fractions, and were examined for indicated proteins. The asterisk indicates nonspecific bands. (E) HEK293 and stably transfected cells of Cdt2^WT or Cdt2^PIP-3A were treated with MG132 for 3 h. Whole-cell extracts (WCE) were prepared, separated into soluble (Sup) and insoluble (Ppt) fractions, and blotted with the indicated antibodies.
as §1

[3] = GFP-tagged, site of UV-C damage (50 J/m^2), 20 min after irradiation

Cdt2: Cdt2 tagged with GFP, transiently expressed in MCF7 cells
poly-ubiquitination of Cdt1 and p21 [1]: Increased levels | enlarged nuclei (re-replication) phenotype (U2OS cells): rescued | half-recovery time [2, 3]: 0.83 s | immobile fraction [2, 3]: 16% | FRAP binding kinetics at damage sites after Cdt1 depletion ([2]; MCF7 synchronized in G1, siCdt1 versus siLuc, Fig 1D): remain the same despite the absence of Cdt1

B1: Cdt2^PIP-3A: Cdt2 with I709, Y712, and F713 all mutated to alanine (protein, UniProt Q9NZJ0 1-730, looked up, variant I709A Y712A F713A)
Denticleless protein homolog: MLFNSVLRQPQLGVLRNGWSSQYPLQSLLTGYQCSGNDEHTSYGETGVPVPPFGCTFSSAPNMEHVLAVANEEGFVRLYNTESQSFRKKCFKEWMAHWNAVFDLAWVPGELKLVTAAGDQTAKFWDVKAGELIGTCKGHQCSLKSVAFSKFEKAVFCTGGRDGNIMVWDTRCNKKDGFYRQVNQISGAHNTSDKQTPSKPKKKQNSKGLAPSVDFQQSVTVVLFQDENTLVSAGAVDGIIKVWDLRKNYTAYRQEPIASKSFLYPGSSTRKLGYSSLILDSTGSTLFANCTDDNIYMFNMTGLKTSPVAIFNGHQNSTFYVKSSLSPDDQFLVSGSSDEAAYIWKVSTPWQPPTVLLGHSQEVTSVCWCPSDFTKIATCSDDNTLKIWRLNRGLEEKPGGDKLSTVGWASQKKKESRPGLVTVTSSQSTPAKAPRAKCNPSNSSPSSAACAPSCAGDLPLPSNTPTFSIKTSPAKARSPINRRGSVSSVSPKPPSSFKMSIRNWVTRTPSSSPPITPPASETKIMSPRKALIPVSQKSSQAEACSESRNRVKRRLDSSCLESVKQKCVKSCNCVTELDGQVENLHLDLCCLAGNQEDLSKDSLGPTKSSKIEGAGTSISEPPSPISPYASESCGTLPLPLRPCGEGSEMVGKENSSPENKNWLLAMAAKRKAENPSPRSPSSQTPNSRRQSGKKLPSPVTITPSSMRKACTAAHRKSQEDFCGPEHSTEL
modifications: FLAG tag
notes: Cdt2 with I709, Y712, and F713 all mutated to alanine
mUb-PCNA level (PCNA mono-ubiquitination): decreased | poly-ubiquitinated p21 on chromatin (p21 poly-ubiquitination): reduced level
